Assay results published in the NIST ThermoML archive (doi:10.1016/j.jct.2017.05.001).

Assay: wn = mass fraction of the nth substance listed
Settings: Liquid; for mass density: Vibrating tube method

OCCN(CCO)CCO [triethanolamine] + O
mass density [kg/m3]
Settings | w1 = 0.0992 | w1 = 0.2 | w1 = 0.2991 | w1 = 0.4
333.15 K, 130000 kPa | 1045.8 | 1059 | 1072.9 | 1088.3
333.15 K, 140000 kPa | 1049.1 | 1062.4 | 1076 | 1091.4
353.15 K, 100 kPa | 985.7 | 999.5 | 1013.6 | 1029.7
353.15 K, 500 kPa | 985.7 | 999.6 | 1013.7 | 1029.8
353.15 K, 1000 kPa | 985.9 | 999.8 | 1013.9 | 1030
353.15 K, 2000 kPa | 986.4 | 1000.1 | 1014.3 | 1030.4
353.15 K, 5000 kPa | 987.7 | 1001.5 | 1015.6 | 1031.7
353.15 K, 10000 kPa | 989.9 | 1003.7 | 1017.8 | 1033.9
353.15 K, 15000 kPa | 992.1 | 1005.8 | 1019.9 | 1035.8
353.15 K, 20000 kPa | 994.1 | 1007.8 | 1021.9 | 1037.9
353.15 K, 30000 kPa | 998.2 | 1011.9 | 1025.9 | 1041.9
353.15 K, 40000 kPa | 1002.4 | 1015.9 | 1029.9 | 1045.8
353.15 K, 50000 kPa | 1006.2 | 1019.8 | 1033.8 | 1049.5
353.15 K, 60000 kPa | 1010.2 | 1023.7 | 1037.6 | 1053.3
353.15 K, 70000 kPa | 1014 | 1027.4 | 1041.2 | 1056.9
353.15 K, 80000 kPa | 1017.6 | 1031.1 | 1044.8 | 1060.4
353.15 K, 90000 kPa | 1021.2 | 1034.5 | 1048.3 | 1063.8
353.15 K, 100000 kPa | 1024.8 | 1038.1 | 1051.8 | 1067.2
353.15 K, 110000 kPa | 1028.4 | 1041.5 | 1055.2 | 1070.5
353.15 K, 120000 kPa | 1031.8 | 1044.9 | 1058.5 | 1073.9
353.15 K, 130000 kPa | 1035.2 | 1048.2 | 1061.8 | 1077.1
353.15 K, 140000 kPa | 1038.4 | 1051.5 | 1065 | 1080.1
373.15 K, 100 kPa | 971.7 | 985.1 | 999.2 | 1014.6
373.15 K, 500 kPa | 971.9 | 985.3 | 999.3 | 1014.8
373.15 K, 1000 kPa | 972.2 | 985.5 | 999.6 | 1015
373.15 K, 2000 kPa | 972.6 | 986.1 | 1000.1 | 1015.5
373.15 K, 5000 kPa | 973.9 | 987.4 | 1001.5 | 1016.8
373.15 K, 10000 kPa | 976.3 | 989.7 | 1003.8 | 1019.1
373.15 K, 15000 kPa | 978.5 | 991.9 | 1006 | 1021.2
373.15 K, 20000 kPa | 980.6 | 994 | 1008.2 | 1023.4

viscosity [mPa·s]
Settings | w1 = 0.0992 | w1 = 0.1 | w1 = 0.2 | w1 = 0.2991 | w1 = 0.3 | w1 = 0.4
353.15 K, 100 kPa, Concentric cylinders viscometry | – | 0.469 | 0.569 | – | 0.81 | 1.125
353.15 K, 100 kPa, Falling or rolling sphere viscometry | 0.4585 | – | 0.5805 | 0.8052 | – | 1.124
353.15 K, 5000 kPa, Falling or rolling sphere viscometry | 0.451 | – | 0.5825 | 0.7994 | – | 1.125
353.15 K, 10000 kPa, Falling or rolling sphere viscometry | 0.4541 | – | 0.5878 | 0.8046 | – | 1.136
353.15 K, 15000 kPa, Falling or rolling sphere viscometry | 0.4547 | – | 0.5898 | 0.811 | – | 1.146
353.15 K, 20000 kPa, Falling or rolling sphere viscometry | 0.4578 | – | 0.5937 | 0.8144 | – | 1.154
353.15 K, 25000 kPa, Falling or rolling sphere viscometry | 0.4595 | – | 0.5975 | 0.821 | – | 1.164
353.15 K, 30000 kPa, Falling or rolling sphere viscometry | 0.4619 | – | 0.6006 | 0.8266 | – | 1.173
353.15 K, 40000 kPa, Falling or rolling sphere viscometry | 0.466 | – | 0.6068 | 0.8374 | – | 1.193
353.15 K, 60000 kPa, Falling or rolling sphere viscometry | 0.4738 | – | 0.6185 | 0.8576 | – | 1.229
353.15 K, 80000 kPa, Falling or rolling sphere viscometry | 0.4813 | – | 0.6313 | 0.8785 | – | 1.266
353.15 K, 100000 kPa, Falling or rolling sphere viscometry | 0.4891 | – | 0.6459 | 0.9019 | – | 1.306
373.15 K, 5000 kPa, Falling or rolling sphere viscometry | 0.3584 | – | 0.444 | 0.5867 | – | 0.7909
373.15 K, 10000 kPa, Falling or rolling sphere viscometry | 0.356 | – | 0.4475 | 0.5894 | – | 0.8001
373.15 K, 15000 kPa, Falling or rolling sphere viscometry | 0.3581 | – | 0.451 | 0.5951 | – | 0.809
373.15 K, 20000 kPa, Falling or rolling sphere viscometry | 0.3595 | – | 0.4534 | 0.5996 | – | 0.819
373.15 K, 25000 kPa, Falling or rolling sphere viscometry | 0.3618 | – | 0.4562 | 0.6046 | – | 0.8242
